Laboratory results from ChEMBL document CHEMBL5518204, “Discovery and Proof of Concept of Potent Dual Polθ/PARP Inhibitors for Efficient Treatment of Homologous Recombination-Deficient Tumors” (J Med Chem, 2024).
The source made the active and inactive calls. The calls are words filed in the database; no cut-off is given here.

Assays:
[1] = test system: HCC1937; test: Antiproliferative activity against BRCA1-deficient human HCC1937 cells assessed as inhibition of cell proliferation incubated for 5 days by MTT assay; type: functional, cell-based; conditions: HCC1937, 120 h
[2] = Antiproliferative activity against human MCF-10A cells assessed as inhibition of cell proliferation incubated for 5 days by MTT assay; type: toxicity, cell-based; conditions: human, MCF-10A cells
[3] = Tmax in Sprague-Dawley rat at 1 mg/kg, iv by LC-MS/MS analysis; type: ADME, organism-based; conditions: in vivo
[4] = target: T1, Poly [ADP-ribose] polymerase tankyrase-1 (Homo sapiens, UniProt O95271); test: Inhibition of PARP5a (unknown origin)
T1 sequence (O95271 whole entry): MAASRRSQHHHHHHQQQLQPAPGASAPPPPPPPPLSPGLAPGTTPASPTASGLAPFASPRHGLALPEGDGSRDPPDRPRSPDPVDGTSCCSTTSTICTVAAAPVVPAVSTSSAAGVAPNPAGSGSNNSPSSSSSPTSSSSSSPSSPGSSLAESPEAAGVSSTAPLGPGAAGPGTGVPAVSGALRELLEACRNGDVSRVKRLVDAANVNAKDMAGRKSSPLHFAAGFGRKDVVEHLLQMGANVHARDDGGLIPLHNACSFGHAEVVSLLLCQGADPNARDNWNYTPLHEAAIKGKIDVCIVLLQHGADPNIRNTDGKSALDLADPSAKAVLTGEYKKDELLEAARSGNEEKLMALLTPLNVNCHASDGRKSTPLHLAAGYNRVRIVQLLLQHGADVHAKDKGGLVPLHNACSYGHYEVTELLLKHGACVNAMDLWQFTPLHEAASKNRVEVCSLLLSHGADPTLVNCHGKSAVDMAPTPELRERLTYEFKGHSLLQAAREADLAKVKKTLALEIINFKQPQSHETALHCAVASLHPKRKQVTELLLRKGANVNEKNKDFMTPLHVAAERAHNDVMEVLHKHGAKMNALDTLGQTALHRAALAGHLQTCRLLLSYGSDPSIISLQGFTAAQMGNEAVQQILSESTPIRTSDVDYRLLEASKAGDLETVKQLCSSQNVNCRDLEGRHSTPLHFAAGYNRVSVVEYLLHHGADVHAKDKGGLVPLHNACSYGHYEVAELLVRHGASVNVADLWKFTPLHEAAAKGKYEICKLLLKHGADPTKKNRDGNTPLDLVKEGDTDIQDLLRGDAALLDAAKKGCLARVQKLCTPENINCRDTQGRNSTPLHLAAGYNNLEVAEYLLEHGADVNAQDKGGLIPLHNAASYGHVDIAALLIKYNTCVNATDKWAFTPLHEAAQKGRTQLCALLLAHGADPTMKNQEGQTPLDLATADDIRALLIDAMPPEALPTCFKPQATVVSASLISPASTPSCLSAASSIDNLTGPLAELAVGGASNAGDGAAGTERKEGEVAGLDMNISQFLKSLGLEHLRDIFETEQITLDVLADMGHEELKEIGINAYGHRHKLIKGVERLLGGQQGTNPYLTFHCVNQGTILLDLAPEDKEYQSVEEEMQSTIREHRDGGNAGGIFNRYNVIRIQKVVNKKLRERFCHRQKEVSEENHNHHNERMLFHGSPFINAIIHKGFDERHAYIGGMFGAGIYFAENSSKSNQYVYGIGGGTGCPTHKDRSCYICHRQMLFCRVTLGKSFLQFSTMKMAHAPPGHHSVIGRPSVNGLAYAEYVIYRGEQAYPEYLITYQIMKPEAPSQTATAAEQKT

[5] = target: T2, Protein mono-ADP-ribosyltransferase TIPARP (Homo sapiens, UniProt Q7Z3E1); test: Inhibition of PARP7 (unknown origin)
T2 sequence (Q7Z3E1 whole entry): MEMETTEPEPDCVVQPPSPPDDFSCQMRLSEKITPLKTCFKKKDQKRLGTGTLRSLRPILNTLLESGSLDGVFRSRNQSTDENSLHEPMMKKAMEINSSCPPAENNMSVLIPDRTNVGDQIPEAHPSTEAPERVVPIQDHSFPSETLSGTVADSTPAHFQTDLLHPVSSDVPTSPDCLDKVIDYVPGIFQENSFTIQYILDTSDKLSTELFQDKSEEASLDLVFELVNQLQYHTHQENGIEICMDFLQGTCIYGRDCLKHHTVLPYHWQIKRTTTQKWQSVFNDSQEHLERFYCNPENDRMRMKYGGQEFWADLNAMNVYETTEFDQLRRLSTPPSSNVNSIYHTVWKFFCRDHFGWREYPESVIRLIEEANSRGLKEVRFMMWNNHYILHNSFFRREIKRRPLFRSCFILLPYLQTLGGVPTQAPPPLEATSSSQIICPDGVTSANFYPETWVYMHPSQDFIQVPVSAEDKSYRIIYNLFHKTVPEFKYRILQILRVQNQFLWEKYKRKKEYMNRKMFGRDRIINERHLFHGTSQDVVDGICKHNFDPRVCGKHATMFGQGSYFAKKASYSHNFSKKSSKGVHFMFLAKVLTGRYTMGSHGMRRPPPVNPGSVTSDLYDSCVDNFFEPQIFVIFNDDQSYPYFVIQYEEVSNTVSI

[6] = test system: MDA-MB-231; test: Antitumor activity against human MDA-MB-231 cells xenografted in BALB/c mouse assessed as tumor growth inhibition at 25 mg/kg, ip administered for 21 days; type: functional; conditions: MDA-MB-231, 504 h, time 21 day, read-out: TGI
[7] = test system: MDA-MB-231; test: Antitumor activity against human MDA-MB-231 cells xenografted in BALB/c mouse assessed as tumor growth inhibition at 40 mg/kg, ip administered for 21 days; type: functional; conditions: MDA-MB-231, 504 h, time 21 day, read-out: TGI
[8] = Toxicity in BALB/c mouse xenografted with human MDA-MB-231 cells assessed as lung damage at 20 to 40 mg/kg, ip administered for 21 days by H and E staining based analysis; type: organism-based; conditions: in vivo, 504 h, dose 20-40 mg/kg, time 21 day
[9] = test system: MDA-MB-231; test: Antiproliferative activity against 53BP1-knockdown human MDA-MB-231 cells incubated for 24 hrs by MTT assay; type: functional, cell-based

IC50 [1]: 20900 nM | Tmax [3]: 4.8 min | IC50 [4]: 206 nM | IC50 [5]: 194 nM
Compound: COc1ccc(Cl)cc1-c1cc(C)ncc1C(=O)Nc1nnc(OCC2CCN(C(=O)c3cc(Cc4n[nH]c(=O)c5ccccc45)ccc3F)CC2)s1
IC50 at 5 days [2]: > 80000 nM | inhibition in vivo at 25 mg/kg [6]: 54.4% | inhibition in vivo at 40 mg/kg [7]: 74.7% | Activity [8]: Non-Toxic | Activity [9]: Active
